In brackets after ≈: the same amount, converted by molar mass. Where two headings read alike, the source gives them in different places.
Tested on: P388 mouse leukemia cells
Assay: P388 mouse leukemia cell assay (growth inhibition, 48 h)
Type: cell-based
Conditions: read-out: P388 IC50
Procedure: The following assay method was utilized to illustrate the antitumor effectiveness of the compositions of Formulae I-V corresponding to manzamines B-D of the examples.
P388 mouse leukemia cells are grown in Dulbecco MEM medium with 10% horse serum, 4 mM glutamine, and 20 ug/ml gentamycin (Biologos, Inc.). Cells are incubated in 10% CO2 and subcultured 2 times per week.
1. Add compound to each well of a 24-well plate or tube and allow solvent to evaporate to dryness.
2. Add 2 ml (1.2×10^5) cells to each well or tube and mix.
3. Incubate in 10% CO2 at 37° for 48 hours.
4. Read platees with an inverted microscope, scoring activity from 1+ to 4+ as follows: ND (not detectable), >90%; 1+, 75-90%; 2+, 50-74%; 3+, 25-49%; 4+, <25% of control growth. Cell counts are performed on each tube and results are reported as percent of control. Alternatively, scoring may be expressed as IC50 which represents the minimum concentration of the composition required to inhibit 50% of the cell growth on the plate. […]

C1=C\CCCCN(CCc2nccc3c2[nH]c2ccccc23)CCCC/1 [Manzamine C, manzamine C]
IC50 (P388 mouse leukemia cells, 48 hours at 37°, 10% CO2): 3 µg/mL (≈ 8.63 µM)

C1=C\CCC23CN4CCCC/C=C\CCC5(OC5C(c5nccc6c5[nH]c5ccccc56)C2CC4)C3NCCCC/1 (stereo not shown) [Manzamine B, manzamine B]
IC50 (Mus musculus, P388, 48 h): 6 µg/mL (≈ 10.9 µM)

OC12C=C(c3nccc4c3[nH]c3ccccc34)C3CCN(CCCC/C=C\CC1)CC31CC3/C=C\CCCCN3C21 (stereo not shown) [Manzamine A, manzamine A, reference compound]
IC50 (Mus musculus, P388, 48 h): 0.075 µg/mL (≈ 0.137 µM)

OC12C=C(C3NCCc4c3[nH]c3ccccc43)C3CCN(CCCC/C=C\CC1)CC31CC3/C=C\CCCCN3C21 (stereo not shown) [Manzamine D, manzamine D]
IC50 (Mus musculus, P388, 48 h): 0.5 µg/mL (≈ 0.904 µM)

Source: patent US4895853A, “Antitumor alkaloids” (priority 1986, dated 1990)
